Ki data for 21 compounds are collected here from patent US8796289B2 (AbbVie Inc., priority 2011, dated 2014).

One may read the Ki as the dissociation constant of the complex between target and ligand, obtained from inhibition or displacement. Low readings indicate tighter binding, high ones weaker binding.

Chain of GST-tagged-Wee1 kinase (P30291 whole entry): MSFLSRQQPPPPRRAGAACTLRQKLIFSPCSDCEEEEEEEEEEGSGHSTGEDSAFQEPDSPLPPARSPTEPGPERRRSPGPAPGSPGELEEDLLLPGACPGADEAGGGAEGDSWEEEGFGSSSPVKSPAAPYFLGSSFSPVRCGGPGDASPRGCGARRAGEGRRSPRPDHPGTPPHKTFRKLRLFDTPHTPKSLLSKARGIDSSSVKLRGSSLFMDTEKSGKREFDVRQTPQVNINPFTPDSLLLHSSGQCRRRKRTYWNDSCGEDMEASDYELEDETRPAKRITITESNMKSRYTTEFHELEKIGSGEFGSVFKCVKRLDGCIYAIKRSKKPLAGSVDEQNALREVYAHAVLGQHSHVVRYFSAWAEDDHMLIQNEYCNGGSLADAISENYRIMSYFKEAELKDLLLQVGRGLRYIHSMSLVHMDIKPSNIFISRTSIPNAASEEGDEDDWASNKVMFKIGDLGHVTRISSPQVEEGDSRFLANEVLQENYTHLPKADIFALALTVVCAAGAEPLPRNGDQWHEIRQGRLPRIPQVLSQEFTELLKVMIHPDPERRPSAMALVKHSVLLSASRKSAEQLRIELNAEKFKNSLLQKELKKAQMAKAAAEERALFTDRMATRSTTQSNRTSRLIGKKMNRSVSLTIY

For this experiment, the target named is GST-tagged-Wee1 kinase (Homo sapiens, UniProt P30291). Nature of the experiment: Wee1 time-resolved fluorescence equilibrium binding assay (displacement of Oregon Green-labeled ATP-competitive kinase probe). As for the experimental part:
Wee1 kinase was assayed using a time-resolved fluorescence equilibrium binding assay monitoring displacement of a rapidly reversible Oregon Green-labeled ATP-competitive kinase probe (N-(2-(2-(2-(4-(4-(5-chloro-4-(2-(1-hydroxycyclobutyl)thiazol-5-yl)-1H-pyrrolo[2,3-b]pyridin-2-yl)phenyl)piperazin-1-yl)ethoxy)ethoxy)ethyl)-2′,7′-difluoro-3′,6′-dihydroxy-3-oxo-3H-spiro[isobenzofuran-1,9′-xanthene]-5-carboxamide) by competitive Wee1 inhibitors.
`CN1CCN(Cc2cccc(-c3nn(-c4c(Cl)cccc4Cl)c(=O)c4cnc(Nc5ccc(N6CCN(C)CC6)cc5)nc34)c2)CC1` [Example 215, 6-(2,6-dichlorophenyl)-8-{3-[(4-methylpiperazin-1-yl)methyl]phenyl}-2-{[4-(4-methylpiperazin-1-yl)phenyl]amino}pyrimido[4,5-d]pyridazin-5(6H)-one] returned a Ki of 0.2 nM.

Consider `CN1CCN(c2ccc(Nc3ncc4c(=O)n(-c5c(Cl)cccc5Cl)nc(-c5cccc(C(=O)N6CCC6)c5)c4n3)cc2)CC1` [Example 216, 8-[3-(azetidin-1-ylcarbonyl)phenyl]-6-(2,6-dichlorophenyl)-2-{[4-(4-methylpiperazin-1-yl)phenyl]amino}pyrimido[4,5-d]pyridazin-5(6H)-one], for which the affinity, expressed as Ki, was 0.1 nM.

`O=c1c2cnc(Nc3ccc4c(c3)CNCC4)nc2c(-c2ccccn2)nn1-c1c(Cl)cccc1Cl` [Example 217, 6-(2,6-dichlorophenyl)-8-(pyridin-2-yl)-2-(1,2,3,4-tetrahydroisoquinolin-7-ylamino)pyrimido[4,5-d]pyridazin-5(6H)-one] had a Ki of 0.1 nM.

`Nc1ccc(N2CCN(c3ncc4c(=O)n(-c5ccncc5)nc(-c5ccccn5)c4n3)CC2)cc1` [Example 218, 2-(4-(4-aminophenyl)piperazin-1-yl)-8-(pyridin-2-yl)-6-(pyridin-4-yl)pyridazino[4,5-d]pyrimidin-5(6H)-one] showed a Ki of 480 nM.

With `CC(=O)c1cc(-c2nn(-c3c(Cl)cccc3Cl)c(=O)c3cnc(Nc4ccc(N5CCN(C)CC5)cc4)nc23)ccn1` [Example 219, 8-(2-acetylpyridin-4-yl)-6-(2,6-dichlorophenyl)-2-{[4-(4-methylpiperazin-1-yl)phenyl]amino}pyrimido[4,5-d]pyridazin-5(6H)-one], the Ki turned out to be 0.1 nM.

Regarding `O=c1c2cnc(Nc3ccc(N4CCNCC4)cc3)nc2c(-c2cnccn2)nn1-c1c(Cl)cccc1Cl` [Example 220, 6-(2,6-dichlorophenyl)-2-{[4-(piperazin-1-yl)phenyl]amino}-8-(pyrazin-2-yl)pyrimido[4,5-d]pyridazin-5(6H)-one], the Ki was 0.4 nM.

Regarding `O=c1c2cnc(Nc3ccc4c(c3)CNCC43CC3)nc2c(-c2ccccn2)nn1-c1c(Cl)cccc1Cl` [Example 221, 6-(2,6-dichlorophenyl)-2-(2′,3′-dihydro-1′H-spiro[cyclopropane-1,4′-isoquinolin]-7′-ylamino)-8-(pyridin-2-yl)pyrimido[4,5-d]pyridazin-5(6H)-one], the Ki is 0.2 nM.

The compound `COC(=O)c1cc(-c2nn(-c3c(Cl)cccc3Cl)c(=O)c3cnc(Nc4ccc(N5CCN(C)CC5)cc4)nc23)ccn1` [Example 222, methyl 4-[6-(2,6-dichlorophenyl)-2-{[4-(4-methylpiperazin-1-yl)phenyl]amino}-5-oxo-5,6-dihydropyrimido[4,5-d]pyridazin-8-yl]pyridine-2-carboxylate] had a Ki of 0.2 nM.

Consider `Cc1cc(Nc2ncc3c(=O)n(-c4c(Cl)cccc4Cl)nc(-c4ccccn4)c3n2)ccc1N1CCCN(C)CC1` [Example 223], for which affinity was put at a Ki of 0.2 nM.

`O=c1c2cnc(Nc3ccc4c(c3)CNCC4)nc2c(-c2ccncc2)nn1-c1c(Cl)cccc1Cl` [Example 224, 6-(2,6-dichlorophenyl)-8-(pyridin-4-yl)-2-(1,2,3,4-tetrahydroisoquinolin-7-ylamino)pyrimido[4,5-d]pyridazin-5(6H)-one] gave a Ki of 0.07 nM.

`CN1CCN(c2ccc(Nc3ncc4c(=O)n(-c5c(Cl)cccc5Cl)nc(-c5ccnc(C(=O)N6CCCC6)c5)c4n3)cc2)CC1` [Example 225, 6-(2,6-dichlorophenyl)-2-{[4-(4-methylpiperazin-1-yl)phenyl]amino}-8-[2-(pyrrolidin-1-ylcarbonyl)pyridin-4-yl]pyrimido[4,5-d]pyridazin-5(6H)-one] returned a Ki of 0.3 nM.

On to `O=c1c2cnc(Nc3ccc(N4CCNCC4)cc3)nc2c(-c2cccc(F)n2)nn1-c1c(Cl)cccc1Cl` [Example 226, 6-(2,6-dichlorophenyl)-8-(6-fluoropyridin-2-yl)-2-{[4-(piperazin-1-yl)phenyl]amino}pyrimido[4,5-d]pyridazin-5(6H)-one], for which the Ki is < 1 nM.

As for `CN1Cc2cc(Nc3ncc4c(=O)n(-c5c(Cl)cccc5Cl)nc(-c5cccc(F)n5)c4n3)ccc2C2(CC2)C1` [Example 227, 6-(2,6-dichlorophenyl)-8-(6-fluoropyridin-2-yl)-2-[(2′-methyl-2′,3′-dihydro-1′H-spiro[cyclopropane-1,4′-isoquinolin]-7′-yl)amino]pyrimido[4,5-d]pyridazin-5(6H)-one], the Ki is < 1 nM.

`C=CCn1nc(-c2ccco2)c2nc(Nc3ccc(N4CCCN(C(C)C)CC4)c(C)c3)ncc2c1=O` [Example 228, 8-(furan-2-yl)-2-({3-methyl-4-[4-(propan-2-yl)-1,4-diazepan-1-yl]phenyl}amino)-6-(prop-2-en-1-yl)pyrimido[4,5-d]pyridazin-5(6H)-one] showed a Ki of 3 nM.

For `O=C1CCCN1c1ccc(-c2nn(-c3c(Cl)cccc3Cl)c(=O)c3cnc(Nc4ccc(N5CCNCC5)cc4)nc23)cc1` [Example 229, 6-(2,6-dichlorophenyl)-8-[4-(2-oxopyrrolidin-1-yl)phenyl]-2-{[4-(piperazin-1-yl)phenyl]amino}pyrimido[4,5-d]pyridazin-5(6H)-one], the Ki is 0.2 nM.

As for `C=CCn1nc(-c2ccccc2)c2nc(Nc3ccc4c(c3)CN(C)CC4)ncc2c1=O` [Example 230, 2-[(2-methyl-1,2,3,4-tetrahydroisoquinolin-7-yl)amino]-8-phenyl-6-(prop-2-en-1-yl)pyrimido[4,5-d]pyridazin-5(6H)-one], the affinity corresponds to a Ki of 5 nM.

Turning to `CN1CCN(c2ccc(Nc3ncc4c(=O)n(-c5c(Cl)cccc5Cl)nc(-c5cc[nH]n5)c4n3)cc2)CC1` [Example 231, 6-(2,6-dichlorophenyl)-2-{[4-(4-methylpiperazin-1-yl)phenyl]amino}-8-(1H-pyrazol-3-yl)pyrimido[4,5-d]pyridazin-5(6H)-one], the Ki turned out to be 0.1 nM.

Consider `CN1CCN(c2ccc(Nc3ncc4c(=O)n(-c5c(Cl)cccc5Cl)nc(-c5ccn(CCN6CCCCC6)n5)c4n3)cc2)CC1` [Example 232, 6-(2,6-dichlorophenyl)-2-{[4-(4-methylpiperazin-1-yl)phenyl]amino}-8-{1-[2-(piperidin-1-yl)ethyl]-1H-pyrazol-3-yl}pyrimido[4,5-d]pyridazin-5(6H)-one], for which the Ki was found to be 0.2 nM.

`Cc1ccccc1-n1nc(-c2ccco2)c2nc(Nc3ccc4c(c3)CN(C)CC4)ncc2c1=O` [Example 233, 8-(furan-2-yl)-6-(2-methylphenyl)-2-[(2-methyl-1,2,3,4-tetrahydroisoquinolin-7-yl)amino]pyrimido[4,5-d]pyridazin-5(6H)-one] had a Ki of 0.3 nM.

Turning to `CN1CCN(c2ccc(Nc3ncc4c(=O)n(-c5c(Cl)cccc5Cl)nc(-c5ccn(CCCl)n5)c4n3)cc2)CC1` [Example 234, 8-[1-(2-chloroethyl)-1H-pyrazol-3-yl]-6-(2,6-dichlorophenyl)-2-{[4-(4-methylpiperazin-1-yl)phenyl]amino}pyrimido[4,5-d]pyridazin-5(6H)-one], the Ki stood at 0.3 nM.

Take `CN1CCN(c2ccc(Nc3ncc4c(=O)n(-c5c(Cl)cccc5Cl)nc(-c5ccn(CCN)n5)c4n3)cc2)CC1` [Example 235, 8-[1-(2-aminoethyl)-1H-pyrazol-3-yl]-6-(2,6-dichlorophenyl)-2-{[4-(4-methylpiperazin-1-yl)phenyl]amino}pyrimido[4,5-d]pyridazin-5(6H)-one]: the Ki was 0.1 nM.
